In patent US9533973B2, “Allosteric modulators of 5-hydroxytryptamine 2C receptor (5-HT2CR)” (THE BOARD OF REGENTS OF THE UNIVERSITY OF TEXAS SYSTEM, priority 2011, dated 2017) one finds Solubility data, which are given here for 31 compounds.

This data set in a line: Solubility of representative compounds (Table 1). It is filed as physicochemical. As to conditions: solvents listed.
For the compound `CCCCCCCCCCC[C@@H]1CCN[C@H](C(=O)N[C@@H](CO)[C@@H](O)c2ccc(SC)cc2)C1` [CYD-5-77-2, (2S,4R)—N-((1S,2S)-1,3-dihydroxy-1-(4-(methylthio)phenyl)propan-2-yl)-4-undecylpiperidine-2-carboxamide], the Solubility result is listed as “EtOH, DMSO”. Turning to `CC(C)(C)c1ccc(CC[C@@H]2CCN[C@H](C(=O)N[C@H](CO)[C@H](O)c3ccccc3)C2)cc1` [CYD-6-2-1, (2S,4R)-4-(4-(tert-butyl)phenethyl)-N-((1R,2R)-1,3-dihydroxy-1-phenylpropan-2-yl)piperidine-2-carboxamide], the Solubility entry was “EtOH, DMSO”. The same measure for `Cc1ccc(CC[C@H]2CCNC(C(=O)N[C@@H](CO)[C@@H](O)c3ccccc3)C2)cc1` (stereo in doubt) [CYD-6-9-1, (2S,4S)—N-((1S,2S)-1,3-dihydroxy-1-phenylpropan-2-yl)-4-(4-methylphenethyl)piperidine-2-carboxamide]: “EtOH, DMSO”. Next, `O=C(N[C@@H](CO)[C@@H](O)c1ccccc1)c1ccccc1C1CCNCC1` [CYD-3-50, N-((1S,2S)-1,3-dihydroxy-1-phenylpropan-2-yl)-2-(piperidin-4-yl)benzamide]: “EtOH, DMSO, H2O”. The same measure for `O=C(N[C@@H](CO)[C@@H](O)c1ccccc1)[C@@H]1C[C@H](C2CCCCC2)CCN1` [CYD-6-15-2, (2S,4R)-4-cyclohexyl-N-((1S,2S)-1,3-dihydroxy-1-phenylpropan-2-yl)piperidine-2-carboxamide]: “EtOH, DMSO”.

Turning to `O=C(N[C@H](CO)[C@H](O)c1ccccc1)[C@H]1C[C@@H](CCC2CCCCC2)CCN1` [CYD-6-1-2, (2R,4S)-4-(2-cyclohexylethyl)-N-((1R,2R)-1,3-dihydroxy-1-phenylpropan-2-yl)piperidine-2-carboxamide], the Solubility entry is on record as “EtOH, DMSO”.

On to `O=C(N[C@@H](CO)[C@@H](O)c1ccccc1)C1C[C@@H](C2CCCCC2)CCN1` (stereo in doubt) [CYD-6-15-1, (2S,4S)-4-cyclohexyl-N-((1S,2S)-1,3-dihydroxy-1-phenylpropan-2-yl)piperidine-2-carboxamide], for which the Solubility entry is listed as “EtOH, DMSO”. Next, `CCCCCCCCCCC[C@@H]1CCN[C@H](C(=O)N[C@@H](CO)[C@@H](O)c2ccc(S(C)(=O)=O)cc2)C1` [CYD-5-80-2, (2S,4R)—N-((1S,2S)-1,3-dihydroxy-1-(4-(methylsulfonyl)phenyl)propan-2-yl)-4-undecylpiperidine-2-carboxamide]: “EtOH, DMSO”. Next, `CS[C@H]1O[C@H]([C@H](NC(=O)C2CC(CCc3ccccc3)CCN2)[C@@H](C)O)[C@H](O)[C@H](O)[C@H]1O` (stereo partly drawn) [CYD-3-61, 2,4-cis-4-Phenethyl-piperidine-2-carboxylic acid [2-hydroxy-1-(3,4,5-trihydroxy-6-methylsulfanyl-tetrahydro-pyran-2-yl)-propyl]-amide]: “EtOH, DMSO”; `CS[C@H]1O[C@H]([C@H](NC(=O)C2CC(CCC3CCCCC3)CCN2)[C@@H](C)O)[C@H](O)[C@H](O)[C@H]1O` (stereo partly drawn) [CYD-3-62, 2,4-cis-4-(2-Cyclohexyl-ethyl)-piperidine-2-carboxylic acid [2-hydroxy-1-(3,4,5-trihydroxy-6-methylsulfanyl-tetrahydro-pyran-2-yl)-propyl]-amide]: “EtOH, DMSO”; `c1ccc(N2CCNCC2CN2CCCCC2)cc1` (stereo not shown) [JZ-1-34]: “EtOH, DMSO”. The same measure for `CCCCCCCCCCC[C@H]1CCN[C@@H](C(=O)N[C@H](CO)[C@H](O)c2ccccc2)C1` [CYD-5-68-2, (2R,4S)—N-((1R,2R)-1,3-dihydroxy-1-phenylpropan-2-yl)-4-undecylpiperidine-2-carboxamide]: “EtOH, DMSO”; for `O=C(N[C@H](CO)[C@H](O)c1ccccc1)[C@H]1C[C@@H](CCc2ccccc2)CCN1` [CYD-5-100-2, (2R,4S)—N-((1R,2R)-1,3-dihydroxy-1-phenylpropan-2-yl)-4-phenethylpiperidine-2-carboxamide]: “EtOH, DMSO”; for `CC1CCC(CC[C@@H]2CCN[C@H](C(=O)N[C@@H](CO)C(O)c3ccccc3)C2)CC1` (stereo in doubt) [CYD-6-10-2, (2S,4R)—N-((1R,2S)-1,3-dihydroxy-1-phenylpropan-2-yl)-4-(2-(4-methylcyclohexyl)ethyl)piperidine-2-carboxamide]: “EtOH, DMSO”. Turning to `O=C(N[C@@H](CO)[C@@H](O)c1ccccc1)C1C[C@@H](c2ccccc2)CCN1` (stereo in doubt) [CYD-6-16-1, (2S,4S)—N-((1S,2S)-1,3-dihydroxy-1-phenylpropan-2-yl)-4-phenylpiperidine-2-carboxamide], the Solubility result is “EtOH, DMSO”. For `CCCCCCCCCCC[C@H]1CCN[C@@H](C(=O)N[C@@H](CO)[C@@H](O)c2ccc(SC)cc2)C1` [CYD-5-77-1, (2R,4S)—N-((1S,2S)-1,3-dihydroxy-1-(4-(methylthio)phenyl)propan-2-yl)-4-undecylpiperidine-2-carboxamide], the Solubility entry is “EtOH, DMSO”. The same measure for `c1ccc(N2CCN(CC3CNCCN3c3ccccc3)CC2)cc1` (stereo not shown) [JZ-1-35]: “EtOH, DMSO”; for `CC1CCC(CC[C@H]2CCNC(C(=O)N[C@@H](CO)[C@@H](O)c3ccccc3)C2)CC1` (stereo in doubt) [CYD-6-10-1, (2S,4S)—N-((1S,2S)-1,3-dihydroxy-1-phenylpropan-2-yl)-4-(2-(4-methylcyclohexyl)ethyl)piperidine-2-carboxamide]: “EtOH, DMSO”; for `O=C(NC(CO)CO)c1ccccc1C1CCNCC1` [CYD-3-33, N-(1,3-Dihydroxypropan-2-yl)-2-(piperidin-4-yl)benzamide]: “EtOH, DMSO H2O”. Turning to `CCCCCCCCCC#Cc1ccnc(C(=O)NC(C(C)Cl)C2OC(SC)C(O)C(O)C2O)c1` (stereo not shown) [CYD-3-21, 4-Undec-1-ynyl-pyridine-2-carboxylic acid [2-chloro-1-(3,4,5-trihydroxy-6-methylsulfanyl-tetrahydro-pyran-2-yl)-propyl]-amide], the Solubility result is listed as “EtOH, DMSO”.

In the case of `O=C(NCC(O)CO)c1ccccc1C1CCNCC1` (stereo not shown) [CYD-3-35, N-(2,3-Dihydroxypropyl)-2-(piperidin-4-yl)benzamide], the Solubility entry is reported as “EtOH, DMSO, H2O”. Consider `Cc1ccc(CC[C@@H]2CCN[C@H](C(=O)N[C@@H](CO)[C@@H](O)c3ccccc3)C2)cc1` [CYD-6-9-2, (2S,4R)—N-((1S,2S)-1,3-dihydroxy-1-phenylpropan-2-yl)-4-(4-methylphenethyl) piperidine-2-carboxamide], for which the Solubility result is “EtOH, DMSO”. The same measure for `O=C(N[C@@H](CO)[C@@H](O)c1ccccc1)[C@@H]1C[C@H](c2ccccc2)CCN1` [CYD-6-16-2, (2S,4R)—N-((1S,2S)-1,3-dihydroxy-1-phenylpropan-2-yl)-4-phenylpiperidine-2-carboxamide]: “EtOH, DMSO”; for `CCCCCCCCCCC[C@H]1CCN[C@@H](C(=O)N[C@@H](CO)[C@@H](O)c2ccccc2)C1` [CYD-3-47-1, (2R,4S)—N-((1S,2S)-1,3-dihydroxy-1-phenylpropan-2-yl)-4-undecylpiperidine-2-carboxamide]: “EtOH, DMSO”; for `CCCCCCCCCCC[C@@H]1CCN[C@H](C(=O)N[C@@H](CO)[C@@H](O)c2ccccc2)C1` [CYD-3-47-2, (2S,4R)—N-((1S,2S)-1,3-dihydroxy-1-phenylpropan-2-yl)-4-undecylpiperidine-2-carboxamide]: “EtOH, DMSO”. Next, `O=C(NCC(O)CO)C1CNCCN1c1ccccc1` (stereo not shown) [CYD-3-49, N-(2,3-Dihydroxypropyl)-1-phenylpiperazine-2-carboxamide]: “EtOH, DMSO, H2O”; `CCCCCCCCCCC[C@@H]1CCN[C@H](C(=O)N[C@H](CO)[C@H](O)c2ccccc2)C1` [CYD-5-68-1, (2S,4R)—N-((1R,2R)-1,3-dihydroxy-1-phenylpropan-2-yl)-4-undecylpiperidine-2-carboxamide]: “EtOH, DMSO”. Turning to `CC(C)(C)c1ccc(CC[C@H]2CCN[C@@H](C(=O)N[C@H](CO)[C@H](O)c3ccccc3)C2)cc1` [CYD-6-2-2, (2R,4S)-4-(4-(tert-butyl)phenethyl)-N-((1R,2R)-1,3-dihydroxy-1-phenylpropan-2-yl)piperidine-2-carboxamide], the Solubility result is given as “EtOH, DMSO”.

Turning to `O=C(N[C@H](CO)[C@H](O)c1ccccc1)[C@@H]1C[C@H](CCc2ccccc2)CCN1` [CYD-5-100-1, (2S,4R)—N-((1R,2R)-1,3-dihydroxy-1-phenylpropan-2-yl)-4-phenethylpiperidine-2-carboxamide], the Solubility entry was “EtOH, DMSO”.

For `CCCCCCCCCCC[C@H]1CCN[C@@H](C(=O)N[C@@H](CO)[C@@H](O)c2ccc(S(C)(=O)=O)cc2)C1` [CYD-5-80-1, (2R,4S)—N-((1S,2S)-1,3-dihydroxy-1-(4-(methylsulfonyl)phenyl)propan-2-yl)-4-undecylpiperidine-2-carboxamide], the Solubility entry is “EtOH, DMSO”.

With `O=C(N[C@H](CO)[C@H](O)c1ccccc1)[C@@H]1C[C@H](CCC2CCCCC2)CCN1` [CYD-6-1-1, (2S,4R)-4-(2-cyclohexylethyl)-N-((1R,2R)-1,3-dihydroxy-1-phenylpropan-2-yl)piperidine-2-carboxamide], the Solubility entry is on record as “EtOH, DMSO”.
